Tested on: Transport facilitation protein genes
Test: DNA chip mRNA expression in yeast, transport facilitation protein genes (Table 5)
Type: cell-based, Saccharomyces cerevisiae S288C
Procedure, shortened: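 Expression change after 2 h toxicant exposure (growth-inhibiting, sub-lethal) of log-phase S. cerevisiae S288C at 25° C. Oligo-dT-purified mRNA was labeled with Cy3-dUTP or Cy5-dUTP and hybridized >12 h at 65° C. to a genome-wide chip; ratio of scanned fluorescence to control.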

CCCCCCCCCCCCOS(=O)(=O)[O-].[Na+] [(18), sodium lauryl sulfate]
The level of expressed mRNA in the presence of chemical substance/The level of expressed mRNA in the absence of chemical substance (yeast gene YBL030C): 1.1
The level of expressed mRNA in the presence of chemical substance/The level of expressed mRNA in the absence of chemical substance (yeast gene YBL099W): 1.2
The level of expressed mRNA in the presence of chemical substance/The level of expressed mRNA in the absence of chemical substance (yeast gene YBR052C): 3.1
The level of expressed mRNA in the presence of chemical substance/The level of expressed mRNA in the absence of chemical substance (yeast gene YBR068C): 1.3
The level of expressed mRNA in the presence of chemical substance/The level of expressed mRNA in the absence of chemical substance (yeast gene YBR127C): 1.0
The level of expressed mRNA in the presence of chemical substance/The level of expressed mRNA in the absence of chemical substance (yeast gene YBR132C): 1.3
The level of expressed mRNA in the presence of chemical substance/The level of expressed mRNA in the absence of chemical substance (yeast gene YBR207W): 1.4
The level of expressed mRNA in the presence of chemical substance/The level of expressed mRNA in the absence of chemical substance (yeast gene YBR293W): 0.9
The level of expressed mRNA in the presence of chemical substance/The level of expressed mRNA in the absence of chemical substance (yeast gene YBR294W): 0.9
The level of expressed mRNA in the presence of chemical substance/The level of expressed mRNA in the absence of chemical substance (yeast gene YBR295W): 1.2
The level of expressed mRNA in the presence of chemical substance/The level of expressed mRNA in the absence of chemical substance (yeast gene YBR298C): 0.8
The level of expressed mRNA in the presence of chemical substance/The level of expressed mRNA in the absence of chemical substance (yeast gene YCL025C): 0.6
The level of expressed mRNA in the presence of chemical substance/The level of expressed mRNA in the absence of chemical substance (yeast gene YCL038C): 1.5
The level of expressed mRNA in the presence of chemical substance/The level of expressed mRNA in the absence of chemical substance (yeast gene YCR024C-A): 1.4
The level of expressed mRNA in the presence of chemical substance/The level of expressed mRNA in the absence of chemical substance (yeast gene YCR037C): 0.9
The level of expressed mRNA in the presence of chemical substance/The level of expressed mRNA in the absence of chemical substance (yeast gene YCR098C): 1.6
The level of expressed mRNA in the presence of chemical substance/The level of expressed mRNA in the absence of chemical substance (yeast gene YDL128W): 1.0
The level of expressed mRNA in the presence of chemical substance/The level of expressed mRNA in the absence of chemical substance (yeast gene YDL198C): 1.1
The level of expressed mRNA in the presence of chemical substance/The level of expressed mRNA in the absence of chemical substance (yeast gene YDL210W): 0.9
The level of expressed mRNA in the presence of chemical substance/The level of expressed mRNA in the absence of chemical substance (yeast gene YDL245C): 1.1
The level of expressed mRNA in the presence of chemical substance/The level of expressed mRNA in the absence of chemical substance (yeast gene YDR038C): 1.5
The level of expressed mRNA in the presence of chemical substance/The level of expressed mRNA in the absence of chemical substance (yeast gene YDR039C): 1.6
The level of expressed mRNA in the presence of chemical substance/The level of expressed mRNA in the absence of chemical substance (yeast gene YDR086C): 1.9
The level of expressed mRNA in the presence of chemical substance/The level of expressed mRNA in the absence of chemical substance (yeast gene YDR270W): 0.7
The level of expressed mRNA in the presence of chemical substance/The level of expressed mRNA in the absence of chemical substance (yeast gene YDR298C): 1.6
The level of expressed mRNA in the presence of chemical substance/The level of expressed mRNA in the absence of chemical substance (yeast gene YDR342C): 2.2
The level of expressed mRNA in the presence of chemical substance/The level of expressed mRNA in the absence of chemical substance (yeast gene YDR343C): 2.3
The level of expressed mRNA in the presence of chemical substance/The level of expressed mRNA in the absence of chemical substance (yeast gene YDR345C): 1.8
The level of expressed mRNA in the presence of chemical substance/The level of expressed mRNA in the absence of chemical substance (yeast gene YDR387C): 1.1
The level of expressed mRNA in the presence of chemical substance/The level of expressed mRNA in the absence of chemical substance (yeast gene YDR497C): 1.8
The level of expressed mRNA in the presence of chemical substance/The level of expressed mRNA in the absence of chemical substance (yeast gene YEL027W): 1.4
The level of expressed mRNA in the presence of chemical substance/The level of expressed mRNA in the absence of chemical substance (yeast gene YEL063C): 0.7
The level of expressed mRNA in the presence of chemical substance/The level of expressed mRNA in the absence of chemical substance (yeast gene YEL065W): 0.6
The level of expressed mRNA in the presence of chemical substance/The level of expressed mRNA in the absence of chemical substance (yeast gene YER053C): 2.3
The level of expressed mRNA in the presence of chemical substance/The level of expressed mRNA in the absence of chemical substance (yeast gene YFL011W): 1.0
The level of expressed mRNA in the presence of chemical substance/The level of expressed mRNA in the absence of chemical substance (yeast gene YFL041W): 0.9
The level of expressed mRNA in the presence of chemical substance/The level of expressed mRNA in the absence of chemical substance (yeast gene YFL050C): 1.0
The level of expressed mRNA in the presence of chemical substance/The level of expressed mRNA in the absence of chemical substance (yeast gene YFL054C): 1.4
The level of expressed mRNA in the presence of chemical substance/The level of expressed mRNA in the absence of chemical substance (yeast gene YGL006W): 4.1
The level of expressed mRNA in the presence of chemical substance/The level of expressed mRNA in the absence of chemical substance (yeast gene YGL008C): 1.0
The level of expressed mRNA in the presence of chemical substance/The level of expressed mRNA in the absence of chemical substance (yeast gene YGL104C): 1.3
The level of expressed mRNA in the presence of chemical substance/The level of expressed mRNA in the absence of chemical substance (yeast gene YGL167C): 1.4
The level of expressed mRNA in the presence of chemical substance/The level of expressed mRNA in the absence of chemical substance (yeast gene YGL255W): 0.5
The level of expressed mRNA in the presence of chemical substance/The level of expressed mRNA in the absence of chemical substance (yeast gene YGR055W): 0.7
The level of expressed mRNA in the presence of chemical substance/The level of expressed mRNA in the absence of chemical substance (yeast gene YGR065C): 0.7
The level of expressed mRNA in the presence of chemical substance/The level of expressed mRNA in the absence of chemical substance (yeast gene YGR082W): 0.8
The level of expressed mRNA in the presence of chemical substance/The level of expressed mRNA in the absence of chemical substance (yeast gene YGR096W): 1.0
The level of expressed mRNA in the presence of chemical substance/The level of expressed mRNA in the absence of chemical substance (yeast gene YGR138C): 0.7
The level of expressed mRNA in the presence of chemical substance/The level of expressed mRNA in the absence of chemical substance (yeast gene YGR191W): 0.8
The level of expressed mRNA in the presence of chemical substance/The level of expressed mRNA in the absence of chemical substance (yeast gene YGR197C): 1.9
